Assay results: ChEMBL document CHEMBL1135425, “Antitumor agents. 213. Modeling of epipodophyllotoxin derivatives using variable selection k nearest neighbor QSAR method” (J Med Chem, 2002)
Values joined by “and” are separate entries in the source; they are usually repeats but may differ in a detail not shown here. Equal entries are not always repeated.

These compounds were tested against DNA topoisomerase II (Homo sapiens) (UniProt P11388+Q02880) (assay: Percentage of intracellular covalent DNA-topoisomerase II complexes formed).
Type: cell-based

Complex formation	SMILES
50%	COC(=O)c1cc(N[C@@H]2c3cc4c(cc3[C@@H](c3cc(OC)c(O)c(OC)c3)[C@H]3C(=O)OC[C@@H]32)OCO4)cc(C(=O)OC)c1
94%	COc1cc([C@@H]2c3cc4c(cc3[C@@H](OC(=O)c3ccc(N)cc3)[C@H]3COC(=O)[C@H]23)OCO4)cc(OC)c1O
99%	COc1cc([C@@H]2c3cc4c(cc3[C@@H](NCc3ccc(C(F)(F)F)cc3)[C@H]3COC(=O)[C@H]23)OCO4)cc(OC)c1O
143%	COc1cc([C@@H]2c3cc4c(cc3[C@@H](NC(=O)NCCCl)[C@H]3COC(=O)[C@H]23)OCO4)cc(OC)c1O
84.1%	C=CCN[C@@H]1c2cc3c(cc2[C@@H](c2cc(OC)c(O)c(OC)c2)[C@H]2C(=O)OC[C@@H]21)OCO3
89.2%	COc1cc([C@@H]2c3cc4c(cc3[C@@H](NCCCO)[C@H]3COC(=O)[C@H]23)OCO4)cc(OC)c1O
96%	COc1ccc(NC2c3cc4c(cc3[C@@H](c3cc(O)c(O)c(OC)c3)[C@H]3C(=O)OC[C@H]23)OCO4)cc1 (stereo partly drawn)
81%	CNC(=O)N[C@@H]1c2cc3c(cc2[C@@H](c2cc(OC)c(O)c(OC)c2)[C@H]2C(=O)OC[C@@H]21)OCO3
47%	COc1cc([C@@H]2c3cc4c(cc3[C@@H](Nc3cc(OC)c(OC)c(OC)c3)[C@H]3COC(=O)[C@H]23)OCO4)cc(OC)c1O
83%	COC(=O)c1cc(N[C@@H]2c3cc4c(cc3[C@@H](c3cc(OC)c(O)c(OC)c3)[C@H]3C(=O)OC[C@@H]32)OCO4)ccc1O
211%	COc1cc([C@@H]2c3cc4c(cc3[C@@H](Nc3ccc(O)cc3)[C@H]3COC(=O)[C@H]23)OCO4)cc(OC)c1O
4%	COc1cc([C@@H]2c3cc(O)c(O)cc3[C@@H](Nc3cccc(O)c3)[C@H]3COC(=O)[C@H]23)cc(OC)c1OC
97%	COc1cc([C@@H]2c3cc4c(cc3[C@@H](Nc3ccc(Oc5ccccc5)cc3)[C@H]3COC(=O)[C@H]23)OCO4)cc(OC)c1O
111%	COCCN[C@@H]1c2cc3c(cc2[C@@H](c2cc(OC)c(O)c(OC)c2)[C@H]2C(=O)OC[C@@H]21)OCO3
109%	COc1cc([C@@H]2c3cc4c(cc3[C@@H](NC(C)C)[C@H]3COC(=O)[C@H]23)OCO4)cc(OC)c1O
151%	COc1cc([C@@H]2c3cc4c(cc3[C@@H](Nc3ccccc3O)[C@H]3COC(=O)[C@H]23)OCO4)cc(OC)c1O
211%	COc1cc([C@@H]2c3cc4c(cc3[C@@H](Nc3ccc(C#N)cc3)[C@H]3COC(=O)[C@H]23)OCO4)cc(OC)c1O

Second part, the compound before the results:

SMILES	Complex formation
COc1cc([C@@H]2c3cc4c(cc3[C@@H](N[C@H](C)CO)[C@H]3COC(=O)[C@H]23)OCO4)cc(OC)c1O	162%
COc1cc(N[C@@H]2c3cc4c(cc3[C@@H](c3cc(OC)c(O)c(OC)c3)[C@H]3C(=O)OC[C@@H]32)OCO4)c(C)cc1[N+](=O)[O-]	3.5%
COc1cc(CN[C@@H]2c3cc4c(cc3[C@@H](c3cc(OC)c(O)c(OC)c3)[C@H]3C(=O)OC[C@@H]32)OCO4)cc(OC)c1	144%
COc1cc([C@@H]2c3cc4c(cc3[C@@H](NC(=O)c3ccccc3)[C@H]3COC(=O)[C@H]23)OCO4)cc(OC)c1O	177%
CCOC(=O)c1ccc(NC2c3cc(OC)c(OC)cc3[C@@H](c3cc(OC)c(O)c(OC)c3)[C@H]3C(=O)OC[C@H]23)cc1 (stereo partly drawn)	127%
COc1cc([C@@H]2c3cc4c(cc3C(Nc3ccc(O)cc3)[C@H]3COC(=O)[C@H]23)OCO4)cc(O)c1O (stereo partly drawn)	83%
COc1cc([C@@H]2c3cc4c(cc3C(Nc3cccc([N+](=O)[O-])c3)[C@H]3COC(=O)[C@H]23)OCO4)cc(O)c1O (stereo partly drawn)	75%
CCOC(=O)c1ccc(NC2c3cc(OC)c(OC)cc3[C@@H](c3cc(OC)c(OC)c(OC)c3)[C@H]3C(=O)OC[C@H]23)cc1 (stereo partly drawn)	9%
COc1cc([C@@H]2c3cc4c(cc3C(Nc3ccc5c(c3)OCCO5)[C@H]3COC(=O)[C@H]23)OCO4)cc(O)c1O (stereo partly drawn)	119%
CCC(C)N[C@@H]1c2cc3c(cc2[C@@H](c2cc(OC)c(O)c(OC)c2)[C@H]2C(=O)OC[C@@H]21)OCO3 (stereo partly drawn)	73%
COc1cc([C@@H]2c3cc4c(cc3[C@@H](NCCN(C)C)[C@H]3COC(=O)[C@H]23)OCO4)cc(OC)c1O	183% and 203%
COc1cc([C@@H]2c3cc4c(cc3[C@@H](NCc3cccc(N)c3)[C@H]3COC(=O)[C@H]23)OCO4)cc(OC)c1O	191%
COc1cc([C@@H]2c3cc4c(cc3[C@@H](Nc3ccc(F)cc3)[C@H]3COC(=O)[C@H]23)OCO4)cc(OC)c1O	213%
CCOC(=O)CC[C@H](NC(=O)c1ccc(N[C@@H]2c3cc4c(cc3[C@@H](c3cc(OC)c(O)c(OC)c3)[C@H]3C(=O)OC[C@@H]32)OCO4)cc1)C(=O)OCC	83%
COc1cc([C@@H]2c3cc4c(cc3[C@@H](NC(=O)c3ccc(F)cc3)[C@H]3COC(=O)[C@H]23)OCO4)cc(OC)c1O	117%
COc1cc([C@@H]2c3cc4c(cc3[C@@H](NC(=O)Nc3ccc(F)cc3)[C@H]3COC(=O)[C@H]23)OCO4)cc(OC)c1O	118%

SMILES	Complex formation
COC(=O)c1ccc(N[C@@H]2c3cc4c(cc3[C@@H](c3cc(OC)c(O)c(OC)c3)[C@H]3C(=O)OC[C@@H]32)OCO4)cc1O	129%
COc1cc([C@@H]2c3cc4c(cc3[C@@H](Nc3cccc(Cl)c3)[C@H]3COC(=O)[C@H]23)OCO4)cc(OC)c1O	51%
COc1cc([C@@H]2c3cc4c(cc3[C@@H](NCc3ccccc3N)[C@H]3COC(=O)[C@H]23)OCO4)cc(OC)c1O	184%
COC1=CC([C@@H]2c3cc4c(cc3C(NC(N=O)C(C)C)[C@H]3COC(=O)[C@H]23)OCO4)=CC(=O)C1(O)CC(C)=O (stereo partly drawn)	1%
COc1cc([C@@H]2c3cc4c(cc3[C@@H](NC(=O)c3ccccc3O)[C@H]3COC(=O)[C@H]23)OCO4)cc(OC)c1O	160%
COc1cc2c(cc1OC)[C@@H](Nc1ccc([N+](=O)[O-])cc1)[C@H]1COC(=O)[C@@H]1[C@@H]2c1cc(OC)c(OC)c(OC)c1	8%
COc1cc([C@@H]2c3cc(O)c(O)cc3[C@@H](Nc3ccccc3)[C@H]3COC(=O)[C@H]23)cc(OC)c1OC	9%
COc1cc([C@@H]2c3cc4c(cc3[C@@H](NCc3ccccc3F)[C@H]3COC(=O)[C@H]23)OCO4)cc(OC)c1O	126%
COC(=O)c1ccc(N[C@@H]2c3cc4c(cc3[C@@H](c3cc(OC)c(O)c(OC)c3)[C@H]3C(=O)OC[C@@H]32)OCO4)cc1	207%
COc1cccc(N[C@@H]2c3cc4c(cc3[C@@H](c3cc(OC)c(O)c(OC)c3)[C@H]3C(=O)OC[C@@H]32)OCO4)c1	104%
COc1cc([C@@H]2c3cc4c(cc3[C@@H](Sc3ccc(O)cc3)[C@H]3COC(=O)[C@H]23)OCO4)cc(OC)c1O	10%
COc1cc([C@@H]2c3cc4c(cc3[C@@H](NC(=O)c3ccc(OC(C)=O)cc3)[C@H]3COC(=O)[C@H]23)OCO4)cc(OC)c1O	137%
COc1cc([C@@H]2c3cc4c(cc3[C@@H](Oc3ccc(O)cc3)[C@H]3COC(=O)[C@H]23)OCO4)cc(OC)c1O	34%
COc1cc([C@@H]2c3cc4c(cc3[C@@H](OC(=O)c3cccc(N)c3)[C@H]3COC(=O)[C@H]23)OCO4)cc(OC)c1O	100%
CCCN[C@@H]1c2cc3c(cc2[C@@H](c2cc(OC)c(O)c(OC)c2)[C@H]2C(=O)OC[C@@H]21)OCO3	69.7%
